Data on 20 compounds can be found in US7629348B2, “Heterocyclic amide and imine derivatives, processes for their preparation, compositions comprising them and their use as pesticides” (Merial Limited, priority 2001, dated 2009).

The subject of test [1] is black bean aphids (Aphis fabae). Nature of the test: Dip test: field bean plants (Vicia faba) and aphids dipped into solution of preparation, aphid mortality. The conditions noted are these: plants and aphids dipped 5 seconds; after 3 and 6 days of storage; concentration 500 ppm or less.
Description: Germinated field bean seeds (Vicia faba) with seed roots were transferred into brown glass bottles filled with tap water and then populated with about 100 black bean aphids (Aphis fabae). Plants and aphids were then dipped into an aqueous solution of the formulated preparation to be examined for 5 seconds. After they had drained, plants and animals were stored in a climatized chamber (16 hours of light/day, 25° C., 40-60% relative atmospheric humidity). After 3 and 6 days of storage, the mortality of the preparation on the aphids was determined.
Test [2] has the same test system. In words: Root-systemic test: solution pipetted into bottle with field bean (Vicia faba), aphid mortality. The following applies: 4 ml aqueous solution pipetted into bottle; after 3 and 6 days of storage; concentration 500 ppm or less.
Description: Germinated field bean seeds (Vicia faba) with seed roots were transferred into brown glass bottles filled with tap water. Four milliliters of an aqueous solution of the formulated preparation to be examined were pipetted into the brown glass bottle. The field bean was then heavily populated with about 100 black bean aphids (Aphis fabae). Plants and aphids were then stored in a climatized chamber (16 hours of light/day, 25° C., 40-60% relative atmospheric humidity). After 3 and 6 days of storage, the root-systemic effect of the preparation as aphid mortality was determined.

In the case of `O=C(NSC1CCCC1)c1cnccc1C(F)(F)F` [Example 1], the “mortality of the preparation on the aphids” value (from here on “mortality of the preparation”) in test [1] was “active”. Further, in test [2], the “root-systemic effect of the preparation as aphid mortality” value (from here on “root-systemic effect of the preparation”) is on record as “active”.

Consider `O=C(NSc1ccccc1)c1cnccc1C(F)(F)F` [Example 2], for which, in test [1], the “mortality of the preparation” value is listed as “active”. In addition, the “root-systemic effect of the preparation” value in test [2] is “active”.

As for `CCN(Sc1ccccc1)C(=O)c1cnccc1C(F)(F)F` [Example 3], the “mortality of the preparation” value in test [1] was “active”. Moreover, the “root-systemic effect of the preparation” value in test [2] is reported as “active”.

Consider `CC(C)N(Sc1ccccc1)C(=O)c1cnccc1C(F)(F)F` [Example 4], for which the “mortality of the preparation” value in test [1] was “active”. Besides, the “root-systemic effect of the preparation” value in test [2] is recorded as “active”.

As to `Cc1ccc(SN(C(=O)c2cnccc2C(F)(F)F)C(C)C)cc1` [Example 6], in test [1], the “mortality of the preparation” value is recorded as “active”. The “root-systemic effect of the preparation” value in test [2] is “active”.

Regarding `O=C(NSc1ccc(Cl)cc1)c1cnccc1C(F)(F)F` [Example 18], in test [1], the “mortality of the preparation” value is on record as “active”. Also, in test [2], the “root-systemic effect of the preparation” value was “active”.

For the compound `O=C(NSc1ccc(F)cc1)c1cnccc1C(F)(F)F` [Example 23], the “mortality of the preparation” value in test [1] is “active”. Further, the “root-systemic effect of the preparation” value in test [2] is on record as “active”.

With `CC(C)SNC(=O)c1cnccc1C(F)(F)F` [Example 29], the “mortality of the preparation” value in test [1] was “active”. For the same compound, in test [2], the “root-systemic effect of the preparation” value is “active”.

For `CCC(C)CSNC(=O)c1cnccc1C(F)(F)F` (stereo not shown) [Example 38], in test [1], the “mortality of the preparation” value is on record as “active”. Further, the “root-systemic effect of the preparation” value in test [2] is recorded as “active”.

With `C=CCSNC(=O)c1cnccc1C(F)(F)F` [Example 44], the “mortality of the preparation” value in test [1] was “active”. Moreover, the “root-systemic effect of the preparation” value in test [2] is on record as “active”.

For `CC(C)CCSNC(=O)c1cnccc1C(F)(F)F` [Example 45], in test [1], the “mortality of the preparation” value was “active”. For the same compound, in test [2], the “root-systemic effect of the preparation” value is listed as “active”.

`CCCCCSNC(=O)c1cnccc1C(F)(F)F` [Example 48]: in test [1], the “mortality of the preparation” value is on record as “active”. Further, in test [2], the “root-systemic effect of the preparation” value was “active”.

Take `CCCCCCSNC(=O)c1cnccc1C(F)(F)F` [Example 49]: in test [1], the “mortality of the preparation” value is on record as “active”. The “root-systemic effect of the preparation” value in test [2] is “active”.

Consider `CCCCCCCSNC(=O)c1cnccc1C(F)(F)F` [Example 50], for which the “mortality of the preparation” value in test [1] is “active”. Further, the “root-systemic effect of the preparation” value in test [2] is listed as “active”.

With `O=C(NSCc1ccc(C(F)(F)F)cc1)c1cnccc1C(F)(F)F` [Example 84], the “mortality of the preparation” value in test [1] is given as “active”. In addition, the “root-systemic effect of the preparation” value in test [2] is given as “active”.

Regarding `O=C(NSCc1cccc(C(F)(F)F)c1)c1cnccc1C(F)(F)F` [Example 85], in test [1], the “mortality of the preparation” value was “active”. Moreover, the “root-systemic effect of the preparation” value in test [2] is “active”.

For `O=C(NSC1CC1)c1cnccc1C(F)(F)F` [Example 98], in test [1], the “mortality of the preparation” value is listed as “active”. The “root-systemic effect of the preparation” value in test [2] is reported as “active”.

In the case of `CC(C)SN=C(OCCC(C)[N+](=O)[O-])c1cnccc1C(F)(F)F` (stereo not shown) [Example 124], the “mortality of the preparation” value in test [1] is “active”. The “root-systemic effect of the preparation” value in test [2] is “active”.

Turning to `O=C(NSC1CCCCC1)c1cnccc1C(F)(F)F` [Example A, N-cyclohexylthio-(4-trifluoromethyl)nicotinamide], in test [1], the “mortality of the preparation” value is recorded as “active”. Also, in test [2], the “root-systemic effect of the preparation” value is “active”.

Consider `CCC(C)SNC(=O)c1cnccc1C(F)(F)F` (stereo not shown) [Example B, N-(2-butylthio)-(4-trifluoromethyl)nicotinamide], for which the “mortality of the preparation” value in test [1] is recorded as “active”. In test [2], the “root-systemic effect of the preparation” value is reported as “active”.
